{"source": "patent US12728186B2", "about": "“Methods and kits for preparing pathogen-inactivated whole blood” (priority 2018, dated 2026)", "assay_type_in_all_cases": "physicochemical", "key": {"[1]": {"assay": "Residual unreacted amustaline by LCMS, Example 3 (1-container vs 3-container kits, PVC1/PVC2/EVA bags)", "protocol": "In another study, pathogen-inactivated whole blood was prepared using amustaline and GSH, in 1-container or 3-container kits of the present disclosure, with the 3-container kits comprising second and third bags (e.g., transfer/storage containers) from three different sources (e.g., different plastics materials). The three different transfer/storage containers included a 600 mL container, comprising Transfufol 3226 PVC film (“PVC1”), a second 600 mL container from a different manufacturer comprising Transfufol 3226 PVC film (“PVC2”), and a 750 mL container from Cerus, comprising EVA (ethylene-vinyl acetate) 1800 film (“EVA”). Six ABO-matched whole blood units in anticoagulant were pooled and split into seven units of ~450 mL each. The seven whole blood units were subjected to pathogen inactivation under conditions of no transfer step between containers (e.g., processing performed in the 1-container kit), or two transfer steps between containers (e.g., processing performed in the 3-container kits) of the indicated storage/transfer bag source (Table 4). Amustaline and GSH were added to the whole blood units as described previously by sterile docking of a filter set to the tubing of an input port of the first containers, which contained the whole blood. Unit 1 was treated with amustaline and GSH at 0.2 mM and 2.0 mM final concentrations, respectively, in the first container and incubated at 22° C., with samples taken at 18, 20, 22 and 24 hours, with no container transfers. For units 2-7, amustaline and GSH were added to the whole blood (0.2 mM and 2.0 mM final concentrations, respectively) in the first container, followed by transfer to the second container and incubation at 22° C. for 18 hours. At 18 hours, samples were taken along with transfer of the mixture to the third container and further incubation at 22° C., with additional sampling at 2 hour intervals (20, 22 and 24 hr).\nAll samples were analyzed by LCMS to determine the level of residual, unreacted amustaline as previously described. […] Following a second transfer (i.e., to third container) at 18 hr and further incubation at 22° C., residual amustaline was less than 1 nM at the 20 hr time point (i.e., 2 hours after bag transfer) for kits with two different container types and approaching 1 nM for kits with the third container type."}, "[2]": {"assay": "Residual unreacted amustaline by LCMS, Example 6 (treatment in blood collection bags)", "conditions": "for Residual amustaline levels in pathogen-inactivated whole blood, 20 hr / Residual amustaline levels in pathogen-inactivated whole blood, 22 hr / Residual amustaline levels in pathogen-inactivated whole blood, 24 hr: 22° C.", "protocol": "More specifically, whole blood units were collected from donors and treated in either Teruflex (Terumo, BB*AGD506A2) blood collection bags (Units 2-7) or Leucoflex (MacoPharma, LQE7230LD) blood collection bags (Units 9-14) containing anticoagulant and integrated into a kit of the present disclosure. Six ABO-matched whole blood units were pooled and split into a control unit and six test units of ~450 mL each. Control units 1 and 8 used kits described in previous Examples. A filter set as previously described was sterile docked to the whole blood transfer tubing of the container that had been sealed and severed, followed by addition of amustaline and GSH to final concentrations of about 0.2 mM and 2.0 mM, respectively. GSH was added first, followed by addition of amustaline within 30 minutes. The mixtures were then incubated at 22° C. for 20 hr, with samples taken for analysis and transfer of the mixtures to the second integrally connected container for test Units 2-7 and 9-14, followed by further incubation and sampling at 2 hr intervals (i.e., 22 hr, 24 hr) for all Units as shown in Table 7."}, "[3]": {"assay": "Residual unreacted amustaline by LCMS, Example 2 (3-container kit)", "protocol": "Another study was performed to evaluate the effect of container transfer on residual levels of amustaline after pathogen-inactivation of whole blood using a 3-container kit of the present disclosure to allow for one or two transfer steps from the initial (e.g., first) container and a similar filter set as Example 1. Six ABO matched whole blood units in anticoagulant were pooled and split into six ~450 mL units transferred into the first blood bag container of the kit comprising Transfufol 3226 PVC film (Renolit), followed by severing and sealing the pooled donor blood bag, and subsequent connection by tubing welding of a filter set to the same input port (e.g., attached tubing) of the first container, for transferring amustaline and GSH into the whole blood. Amustaline and GSH were added to the whole blood units at final concentrations of 0.2 mM and 2.0 mM, respectively, followed by transfer of the mixture to the second bag (Transfufol 3226 PVC film) and incubated at 22° C. At 22 hr, samples were taken for analysis along with transfer of the mixture to the third bag (Transfufol 3226 PVC film), followed by further incubation at 22° C., with additional samples taken for analysis at 24 hr (i.e., 2 hr post-final transfer) and 26 hr (i.e., 4 hr post-final transfer).\nSamples were analyzed by LCMS to determine the level of residual, unreacted amustaline as previously described."}, "[4]": {"conditions": "Unit 1, control unit (kit of previous Examples, not transferred), collection bag T"}, "[5]": {"conditions": "Unit 8, control unit (kit of previous Examples, not transferred), collection bag M"}, "[6]": {"conditions": "Units 2-7, treated in Teruflex (T) blood collection bag, to second container at 20 hr"}, "[7]": {"conditions": "Units 9-14, treated in Leucoflex (M) blood collection bag, to second container at 20 hr"}}, "note": "Where “and” joins values, the source holds several entries; their conditions need not be identical. Identical values can stand only once."}
{"molecule": "O=C(CCNc1c2ccccc2nc2ccccc12)OCCN(CCCl)CCCl", "note": "[amustaline]", "values": [{"measurement": "Residual amustaline levels in pathogen-inactivated whole blood, 18 hr", "setting": "[1]; 18 hr (at transfer to third container), Units 2-3, 3 bag kit, 2x transfer, PVC1 transfer bags, 22° C.", "result": "1.75 nM and 1.52 nM"}, {"measurement": "Residual amustaline levels in pathogen-inactivated whole blood, 18 hr", "setting": "[1]; 18 hr (at transfer to third container), Units 4-5, 3 bag kit, 2x transfer, PVC2 transfer bags, 22° C.", "result": "1.45 nM and 1.48 nM"}, {"measurement": "Residual amustaline levels in pathogen-inactivated whole blood, 18 hr", "setting": "[1]; 18 hr (at transfer to third container), Units 6-7, 3 bag kit, 2x transfer, EVA transfer bags, 22° C.", "result": "3.11 nM and 3.51 nM"}, {"measurement": "Residual amustaline levels in pathogen-inactivated whole blood, 18 hr", "setting": "[1]; 18 hr, Unit 1, 1 bag kit, no transfer, 22° C.", "result": 2.16, "unit": "nM"}, {"measurement": "residual amustaline at the 20 hr time point, kits with the third container type", "setting": "[1]; 20 hr (2 hours after bag transfer at 18 hr), 3-container kits, third container type, 22° C.", "result": "~1", "unit": "nM"}, {"measurement": "residual amustaline at the 20 hr time point, kits with two container types", "setting": "[1]; 20 hr (2 hours after bag transfer at 18 hr), 3-container kits, two different container types, 22° C.", "result": "less than 1 nM"}, {"measurement": "Residual amustaline levels in pathogen-inactivated whole blood, 20 hr", "setting": "[1]; 20 hr (third container from 18 hr), Units 2-3, 3 bag kit, 2x transfer, PVC1 transfer bags, 22° C.", "result": "0.88 nM and 0.78 nM"}, {"measurement": "Residual amustaline levels in pathogen-inactivated whole blood, 20 hr", "setting": "[1]; 20 hr (third container from 18 hr), Units 4-5, 3 bag kit, 2x transfer, PVC2 transfer bags, 22° C.", "result": "0.85 nM and 0.87 nM"}, {"measurement": "Residual amustaline levels in pathogen-inactivated whole blood, 20 hr", "setting": "[1]; 20 hr (third container from 18 hr), Units 6-7, 3 bag kit, 2x transfer, EVA transfer bags, 22° C.", "result": "1.14 nM and 1.22 nM"}, {"measurement": "Residual amustaline levels in pathogen-inactivated whole blood, 20 hr", "setting": "[1]; 20 hr, Unit 1, 1 bag kit, no transfer, 22° C.", "result": 1.99, "unit": "nM"}, {"measurement": "Residual amustaline levels in pathogen-inactivated whole blood, 22 hr", "setting": "[1]; 22 hr (third container from 18 hr), Units 2-3, 3 bag kit, 2x transfer, PVC1 transfer bags, 22° C.", "result": "BLOQ (BLOQ = Below Limit of Quantitation (e.g., <0.75 nM))"}, {"measurement": "Residual amustaline levels in pathogen-inactivated whole blood, 22 hr", "setting": "[1]; 22 hr (third container from 18 hr), Units 4-5, 3 bag kit, 2x transfer, PVC2 transfer bags, 22° C.", "result": "BLOQ (BLOQ = Below Limit of Quantitation (e.g., <0.75 nM))"}, {"measurement": "Residual amustaline levels in pathogen-inactivated whole blood, 22 hr", "setting": "[1]; 22 hr (third container from 18 hr), Units 6-7, 3 bag kit, 2x transfer, EVA transfer bags, 22° C.", "result": "BLOQ (BLOQ = Below Limit of Quantitation (e.g., <0.75 nM))"}, {"measurement": "level of residual amustaline at 22 hr and 24 hr, 3-container kits", "setting": "[1]; 22 hr and 24 hr (4 or 6 hours after bag transfer), all samples in 3-container kits, three container types", "result": "below the limit of quantitation"}, {"measurement": "Residual amustaline levels in pathogen-inactivated whole blood, 22 hr", "setting": "[1]; 22 hr, Unit 1, 1 bag kit, no transfer, 22° C.", "result": 1.46, "unit": "nM"}, {"measurement": "Residual amustaline levels in pathogen-inactivated whole blood, 24 hr", "setting": "[1]; 24 hr (third container from 18 hr), Units 2-3, 3 bag kit, 2x transfer, PVC1 transfer bags, 22° C.", "result": "BLOQ (BLOQ = Below Limit of Quantitation (e.g., <0.75 nM))"}, {"measurement": "Residual amustaline levels in pathogen-inactivated whole blood, 24 hr", "setting": "[1]; 24 hr (third container from 18 hr), Units 4-5, 3 bag kit, 2x transfer, PVC2 transfer bags, 22° C.", "result": "BLOQ (BLOQ = Below Limit of Quantitation (e.g., <0.75 nM))"}, {"measurement": "Residual amustaline levels in pathogen-inactivated whole blood, 24 hr", "setting": "[1]; 24 hr (third container from 18 hr), Units 6-7, 3 bag kit, 2x transfer, EVA transfer bags, 22° C.", "result": "BLOQ (BLOQ = Below Limit of Quantitation (e.g., <0.75 nM))"}, {"measurement": "Residual amustaline levels in pathogen-inactivated whole blood, 24 hr", "setting": "[1]; 24 hr, Unit 1, 1 bag kit, no transfer, 22° C.", "result": 1.54, "unit": "nM"}, {"measurement": "Residual amustaline levels in pathogen-inactivated whole blood, 20 hr", "setting": "[2]; 20 hr (at transfer), Units 2-7, treated in Teruflex (T) blood collection bag, to second container at 20 hr", "result": "2.12e-09 M and 2.32e-09 M and 1.29e-09 M and 1.62e-09 M and 1.53e-09 M and 1.92e-09 M"}, {"measurement": "Residual amustaline levels in pathogen-inactivated whole blood, 20 hr", "setting": "[2]; 20 hr (at transfer), Units 9-14, treated in Leucoflex (M) blood collection bag, to second container at 20 hr", "result": "1.36e-09 M and 1.32e-09 M and 1.44e-09 M and 1.34e-09 M and 1.49e-09 M and 1.4e-09 M"}, {"measurement": "Residual amustaline levels in pathogen-inactivated whole blood, 20 hr", "setting": "[2]; 20 hr, Unit 1, control unit (kit of previous Examples, not transferred), collection bag T", "result": "2.35e-09", "unit": "M"}, {"measurement": "Residual amustaline levels in pathogen-inactivated whole blood, 20 hr", "setting": "[2]; 20 hr, Unit 8, control unit (kit of previous Examples, not transferred), collection bag M", "result": "2.62e-09", "unit": "M"}, {"measurement": "Residual amustaline levels in pathogen-inactivated whole blood, 22 hr", "setting": "[2]; [4]", "result": 1.61, "unit": "nM"}, {"measurement": "Residual amustaline levels in pathogen-inactivated whole blood, 22 hr", "setting": "[2]; [5]", "result": 1.93, "unit": "nM"}, {"measurement": "Residual amustaline levels in pathogen-inactivated whole blood, 22 hr", "setting": "[2]; [6]", "result": "BLOQ (BLOQ = Below Limit of Quantitation (e.g., < 0.75 nM))"}, {"measurement": "Residual amustaline levels in pathogen-inactivated whole blood, 22 hr", "setting": "[2]; [7]", "result": "BLOQ (BLOQ = Below Limit of Quantitation (e.g., < 0.75 nM))"}, {"measurement": "Residual amustaline levels in pathogen-inactivated whole blood, 24 hr", "setting": "[2]; [4]", "result": 1.81, "unit": "nM"}, {"measurement": "Residual amustaline levels in pathogen-inactivated whole blood, 24 hr", "setting": "[2]; [5]", "result": 1.85, "unit": "nM"}, {"measurement": "Residual amustaline levels in pathogen-inactivated whole blood, 24 hr", "setting": "[2]; [6]", "result": "BLOQ (BLOQ = Below Limit of Quantitation (e.g., < 0.75 nM))"}, {"measurement": "Residual amustaline levels in pathogen-inactivated whole blood, 24 hr", "setting": "[2]; [7]", "result": "BLOQ (BLOQ = Below Limit of Quantitation (e.g., < 0.75 nM))"}, {"measurement": "Residual amustaline levels, Units transferred to the second bag at 20 hr", "setting": "[2]; Units treated in blood collection bags and transferred to the second bag at 20 hr", "result": "below the limit of quantitation"}, {"measurement": "Residual amustaline levels in pathogen-inactivated whole blood, 22 hr", "setting": "[3]; Units 1-6, 3-container kit (PVC), moved to second bag after amustaline/GSH addition, 22° C., 22 hr, at transfer to third bag", "result": "1.46 nM and 1.39 nM and 1.35 nM and 1.96 nM and 1.84 nM and 1.55 nM"}, {"measurement": "Residual amustaline levels in pathogen-inactivated whole blood, 26 hr", "setting": "[3]; Units 1-6, 3-container kit (PVC), third bag from 22 hr, 22° C., 26 hr (4 hr post-final transfer)", "result": "BLOQ (BLOQ = Below Limit of Quantitation (e.g., < 0.75 nM))"}, {"measurement": "residual amustaline levels after transfer to third bag", "setting": "[3]; third bag after 22 hr, further 22° C. for 2 hr or 4 hr, all samples", "result": "below 1 nM"}]}
